Measured values from patent US20110183969A1, “ANTIFUNGAL COMBINATION THERAPY” (priority 2008, published 2011).
Converted amounts (≈) assume the structure as drawn.

How the values were obtained:
Assay in all cases: MIC (YAG medium)
Format in all cases: cell-based
[1] = tested on: Aspergillus flavus; settings: YAG medium, MIC banded into grades; for MIC: Aspergillus flavus, read-out: MIC A. flavus (grade)
Description: (§1) Between 1 and 5 mgs of compound were accurately weighed out into a sterile Eppendorf tube. The compound was dissolved in DMSO to give a solution containing 5 mg/mL. Tubes were stored at −20° C. until required.
(§2) On the day of testing thawed solutions were vortex mixed to ensure homogeneity. 30 μL of solution was removed and added to 570 μL of sterile water in a separate sterile Eppendorf The thoroughly mixed solution was used to prepare a series of doubling dilutions in water, in a deep well plate. […] replicate plates were prepared using a Minitrak by aspirating 20 μL from each well into eleven clear polystyrene 96 well plates.
(§3) Spores of Aspergillus spp. (Aspergillus fumigatus [two strains], Aspergillus terreus [two strains], Aspergillus niger and Aspergillus flavus) were harvested from cultures grown on Sabarauds agar for 5 days, and resuspended in PBS/Tween 80 to approx 1×10^7 cfu/mL. Other filamentous fungi (Absidia corymbifera, Fusarium solani, Rhizomucor, Scedosporium spp., Trichophyton spp.), were grown on Sabarauds agar for 2-10 days and spores/hyphae resuspended in PBS/Tween to give approx 1×10^7 cfu/mL. Candida species (Candida albicans, Candida glabrata, Candida krusei, Candida parapsilosis and Candida tropicalis) were grown on Sabarauds agar, cells were harvested from the agar using a sterile loop and resuspended in PBS/Tween 80 to approx 1×10^6 cfu/mL. Each organism suspension was diluted in RPMI medium, containing 2% glucose and 0.135 M MOPS buffer (pH 7.0) to 0.5−2×10^4 cfu/mL for Aspergillus spp. and other filamentous fungi and 0.5-2×10^3 cfu/mL for yeast. 80 μL of an organism suspension was added to each well of the plate containing drug dilutions.
(§4) This produced MIC plates with a drug range 50-0.05 mg/L and organism inocula of 1-2×10^4 cfu/mL for Aspergillus spp. and other filamentous fungi and 1-2×10^3 cfu/mL for yeasts. All plates were incubated for 24-48 hrs at 35° C. Growth was assessed by monitoring the optical density at 485 nm for each well. The MIC of a compound is the lowest drug concentration that inhibits growth of an organism by >80% compared with a drug free control. MICs are recorded as mg/L. Other growth media can be used for susceptibility testing, and the activity of the described compounds can also be assessed in a medium comprising 1% glucose, 1% ammonium chloride and 0.5% yeast extract (YAG medium). To perform MIC tests in this medium, dilutions of compounds are prepared in microtitre plates as described above. Fungal strains to be tested are grown and harvested in an identical manner to that described above, each organism suspension is then diluted in YAG medium to 0.5-2×10^4 cfu/mL for Aspergillus spp. and other filamentous fungi and 0.5-2×10^3 cfu/mL for yeast. 80 μL of an organism suspension was added to each well of the plate containing drug dilutions. This produced MIC plates with a drug range 50-0.05 mg/L and organism inocula of 1-2×10^4 cfu/mL for Aspergillus spp. and other filamentous fungi and 1-2×10^3 cfu/mL for yeasts. All plates were incubated for 24 hrs at 35° C. Growth was assessed by monitoring the optical density at 485 nm for each well. The MIC of a compound is the lowest drug concentration that inhibits growth of an organism by >70% compared with a drug free control. MICs are recorded as mg/L. In cases where the MIC of an organism is […] mg/L the MIC is repeated using a concentration range of 0.5-0.0005 mg/L. MIC tests in YAG medium have more clear-cut endpoints and have slightly lower MICs than those performed in RPMI medium.
(§5) The following organisms were tested: Absidia corymbifera, Aspergillus flavus, Aspergillus fumigatus AF293 and AF210, Aspergillus niger, Aspergillus terreus AT4 and AT49, Candida albicans, Candida glabrata, Candida krusei, Candida parapsilosis, Candida tropicalis, Fusarium solani, Rhizomucor sp., Scedosporium apiospermum, Scedosporium prolificans, Trichophyton mentagrophytes, and Trichophyton rubrum.

[2] = tested on: Aspergillus fumigatus AF210; settings: YAG medium, MIC banded into grades, AF210; for MIC: Aspergillus fumigatus, read-out: MIC A. fumigatus 210 (grade)
Description: as §1, §2, §3, §4, §5

[3] = tested on: Aspergillus fumigatus AF293; settings: YAG medium, MIC banded into grades, AF293; for MIC: Aspergillus fumigatus, read-out: MIC A. fumigatus (grade)
Description: as §1, §2, §3, §4, §5

[4] = tested on: Aspergillus niger; settings: YAG medium, MIC banded into grades; for MIC: Aspergillus niger, read-out: MIC A. niger (grade)
Description: as §1, §2, §3, §4, §5

[5] = tested on: Aspergillus terreus AT49; settings: YAG medium, MIC banded into grades, AT49; for MIC: Aspergillus terreus, read-out: MIC A. terreus 49 (grade)
Description: as §1, §2, §3, §4, §5

[6] = tested on: Aspergillus terreus AT4; settings: YAG medium, MIC banded into grades, AT4; for MIC: Aspergillus terreus, read-out: MIC A. terreus (grade)
Description: as §1, §2, §3, §4, §5

Molecule	MIC [1] [µg/mL]	MIC [2] [µg/mL]	MIC [3] [µg/mL]	MIC [4] [µg/mL]	MIC [5] [µg/mL]	MIC [6] [µg/mL]	MIC A. flavus (grade) [1]	MIC A. fumigatus 210 (grade) [2]	MIC A. fumigatus (grade) [3]	MIC A. niger (grade) [4]	MIC A. terreus 49 (grade) [5]	MIC A. terreus (grade) [6]
Cc1cc(C)nc(N2CCN(c3ccc(NC(=O)C(=O)c4c(C5CCCC5)cc5ccccn45)cc3)CC2)c1 [Example 47, 2-(2-Cyclopentyl-indolizin-3-yl)-N-{4-[4-(4,6-dimethyl-pyridin-2-yl)-piperazin-1-yl]-phenyl}-2-oxo-acetamide]	< 1	< 1	< 1	< 1	< 1	< 1						
Cc1c(-c2ccccc2)c2ccccn2c1C(=O)C(=O)Nc1ccc(N2CCOCC2)cc1 [Example 7, 2-(2-methyl-1-phenyl-indolizin-3-yl)-N-(4-morpholin-4-yl-phenyl)-2-oxo-acetamide]	> 10	> 10	> 10	> 10	> 10	> 10						
O=C(Nc1ccc(N2CCN(c3ccccn3)CC2)cc1)C(=O)c1c(-c2ccccc2)cc2ccccn12 [Example 41, 2-Oxo-2-(2-phenyl-indolizin-3yl)-N-[4-(4-pyridin-2-yl-piperizin-1-yl)-phenyl]-acetamide]							3 (A grade of 3 represents an MIC of less than 1 mg/L)	3 (A grade of 3 represents an MIC of less than 1 mg/L)	3 (A grade of 3 represents an MIC of less than 1 mg/L)	3 (A grade of 3 represents an MIC of less than 1 mg/L)	3 (A grade of 3 represents an MIC of less than 1 mg/L)	3 (A grade of 3 represents an MIC of less than 1 mg/L)
O=C(Nc1ccc(N2CCN(CCc3ccco3)CC2)cc1)C(=O)c1c(-c2ccccc2)cc2ccccn12 [Example 39, N-{4-[4-(2-Furan-2-yl-ethyl)-piperazin-1-yl]-phenyl}-2-oxo-2-(2-phenyl-indolizin-3-yl)-acetamide]	< 1	< 1	< 1	< 1	< 1	< 1						
O=C(Nc1ccc(N2CCN(c3cccc(NCCO)n3)CC2)cc1)C(=O)c1c(-c2ccccc2)cc2ccccn12 [Example 87, N-(4-{4-[6-(2-hydroxyethylamino)-pyridin-2-yl]-piperazin-1-yl}-phenyl)-2-oxo-2-(2-phenyl-indolizin-3-yl)-acetamide]	< 1	1 to 10 (≈ 1.78 to 17.8 µM)	< 1	> 10	< 1	1 to 10 (≈ 1.78 to 17.8 µM)						
COCCOc1cc(C)nc(N2CCN(c3ccc(NC(=O)C(=O)c4c(-c5ccccc5)cc5ccccn45)cc3)CC2)c1 [Example 57, N-(4-{4-[4-(2-Methoxy-ethoxy)-6-methyl-pyridin-2-yl]-piperazin-1-yl}-phenyl)-2-oxo-2-(2-phenyl-indolizin-3-yl)-acetamide]	< 1	< 1	< 1	< 1	< 1	< 1						
Cc1cc(C)nc(N2CCC(O)(c3ccc(NC(=O)C(=O)c4c(-c5ccccc5)cc5ccccn45)cc3)CC2)c1 [Example 79, N-[4-(4-hydroxy-4′,6′-dimethyl-3,4,5,6-tetrahydro-2H-[1,2′]-bipyridinyl-4-yl)-phenyl]-2-oxo-2-(2-phenyl-indolizin-3-yl)-acetamide]	> 10	> 10	> 10	> 10	> 10	> 10						
Cc1cc(C)nc(N2CCN(c3ccc(NC(=O)C(=O)c4c(C5CCOCC5)cc5ccccn45)cc3)CC2)c1 [Example 66, N-{4-[4-(4,6-Dimethyl-pyridin-2-yl)-piperazin-1-yl]-phenyl}-2-oxo-2-[2-(tetrahydro-pyran-4-yl)-indolizin-3-yl]-acetamide]	< 1	< 1	< 1	< 1	< 1	< 1						
COCc1cc(NC(=O)C(=O)c2c(-c3ccccc3)cc3ccccn23)ccc1N1CCN(c2cc(C)cc(C)n2)CC1 [Example 81, N-{4-[4-(4,6-Dimethyl-pyridin-2-yl)-piperazin-1-yl]-3-methoxymethyl-phenyl}-2-oxo-2-(2-phenyl-indolizin-3-yl)-acetamide]	< 1	< 1	< 1	< 1	< 1	< 1						
Cc1cc(C)nc(N2CCN(c3ccc(NC(=O)C(=O)c4c(-c5ccccc5)cc5ccccn45)cc3C(=O)O)CC2)c1 [Example 84, 2-[4-(4,6-Dimethyl-pyridin-2-yl)-piperazin-1-yl]-5-[2-oxo-2-(2-phenyl-indolizin-3-yl)-acetylamino]-benzoic acid]	< 1	1 to 10 (≈ 1.74 to 17.4 µM)	< 1	1 to 10 (≈ 1.74 to 17.4 µM)	1 to 10 (≈ 1.74 to 17.4 µM)	1 to 10 (≈ 1.74 to 17.4 µM)						
Cc1ccc(N2CCN(c3ccc(NC(=O)C(=O)c4c(-c5ccccc5)cc5ccccn45)cc3)CC2)nc1 [Example 74, N-{4-[4-(5-Methyl-pyridin-2-yl)-piperazin-1-yl]-phenyl}-2-oxo-2-(2-phenyl-indolizin-3-yl)-acetamide]	< 1	< 1	< 1	< 1	< 1	< 1						
Cc1cc(C)nc(N2CCN(c3cccc(NC(=O)C(=O)c4c(-c5ccccc5)cc5ccccn45)c3)CC2)c1 [Example 48, N-{3-[4-(4,6-Dimethyl-pyridin-2-yl)-piperazin-1-yl]-phenyl}-2-oxo-2-(2-phenyl-indolizin-3-yl)-acetamide]	< 1	< 1	< 1	< 1	< 1	< 1						
N-{4-[4-(2,6-Dimethyl-pyrimidin-4-yl)-piperazin-1-yl]-phenyl}-2-(2-phenyl-indolizin-3-yl)-acetamide [Example 45]							3 (A grade of 3 represents an MIC of less than 1 mg/L)	3 (A grade of 3 represents an MIC of less than 1 mg/L)	3 (A grade of 3 represents an MIC of less than 1 mg/L)	2 (A grade of 2 represents an MIC of from 1 to 10)	3 (A grade of 3 represents an MIC of less than 1 mg/L)	3 (A grade of 3 represents an MIC of less than 1 mg/L)
Cc1cc(C)nc(N2CCN(c3ccc(NC(=O)C(=O)c4c(-c5ccccc5)cc5ccccn45)cc3C)CC2)c1 [Example 82, N-{4-[4-(4,6-Dimethyl-pyridin-2-yl)-piperazin-1-yl]-3-methyl-phenyl}-2-oxo-2-(2-phenyl-indolizin-3-yl)-acetamide]	< 1	< 1	< 1	< 1	< 1	< 1						
